Measurements from patent US20150044702A1, “MEANS AND METHODS FOR ASSESSING DISORDERS RELATED TO IMPAIRED IRON […] ENERGY METABOLISM” (BASF SE, priority 2012, published 2015).
Marks after values point to notes of the source that are not given here.

Assay: 28-day rat study, plasma metabolite profiling: markers for Duodenum iron deficiency;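 note: rats given the compounds once a day across 28 days, plasma from fasted animals profiled by GC-MS and LC-MS, separate control groups of five rats per sex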
Conditions: for Cholic acid, treatment ratio versus control / Choline plasmalogen (C18,C20:4), treatment ratio versus control / Citrate, treatment ratio versus control / Creatinine, treatment ratio versus control / DAG (C18:1,C18:2), treatment ratio versus control / Hippuric acid, treatment ratio versus control / Indole-3-propionic acid, treatment ratio versus control / Methionine, treatment ratio versus control / Proline, treatment ratio versus control / Serine, treatment ratio versus control / TAG (C16:0,C18:1,C18:3), treatment ratio versus control / TAG (C18:1,C18:2), treatment ratio versus control / TAG (C18:2,C18:2), treatment ratio versus control / TAG (C18:2,C18:3), treatment ratio versus control / TAG (DAG-Fragment), treatment ratio versus control / TAG No 02, treatment ratio versus control / TAG No 07, treatment ratio versus control / Threonine, treatment ratio versus control / alpha-Tocopherol, treatment ratio versus control / Alanine, treatment ratio versus control / Campesterol, treatment ratio versus control / Glutamate, treatment ratio versus control / Glutamine, treatment ratio versus control / Lysophosphatidylcholine (C20:4), treatment ratio versus control / Malate, treatment ratio versus control / Ornithine, treatment ratio versus control / Phosphatidylcholine (C18:0, C22:6), treatment ratio versus control / Threonic acid, treatment ratio versus control: plasma
Procedure: A group of each 5 male and female rats was dosed once daily with the indicated compounds (see Table 4, below for compounds, applied doses and administration details) over 28 days.
Each dose group in the studies consisted of five rats per sex. Additional groups of each 5 male and female animals served as controls. Before starting the treatment period, animals, which were 62-64 days old when supplied, were acclimatized to the housing and environmental conditions for 7 days. All animals of the animal population were kept under the same constant temperature (20-24±3° C.) and the same constant humidity (30-70%). The animals of the animal population were fed ad libitum. The food to be used was essentially free of chemical or microbial contaminants. Drinking water was also offered ad libitum. Accordingly, the water was free of chemical and microbial contaminants as laid down in the European Drinking Water Directive 98/83/EG. The illumination period was 12 hours light followed by 12 hours darkness (12 hours light, from 6:00 to 18:00, and 12 hours darkness, from 18:00 to 6:00). The studies were performed in an AAALAC-approved laboratory in accordance with the German Animal Welfare Act and the European Council Directive 86/609/EE. The test system was arranged according to the OECD 407 guideline for the testing of chemicals for repeated dose 28-day oral toxicity study in rodents.
In the morning of day 7, 14, and 28, blood was taken from the retroorbital venous plexus from fasted anaesthetized animals. From each animal, 1 ml of blood was collected with EDTA as anticoagulant. The samples were centrifuged for generation of plasma. All plasma samples were covered with a N2 atmosphere and then stored at −80° C. until analysis.
For mass spectrometry-based metabolite profiling analyses plasma samples were extracted and a polar and a non-polar (lipid) fraction was obtained. For GC-MS analysis, the non-polar fraction was treated with methanol under acidic conditions to yield the fatty acid methyl esters. Both fractions were further derivatised with O-methyl-hydroxyamine hydrochloride and pyridine to convert Oxo-groups to O-methyloximes and subsequently with a silylating agent before analysis. In LC-MS analysis, both fractions were reconstituted in appropriate solvent mixtures. HPLC was performed by gradient elution on reversed phase separation columns.
Steroids and their metabolites were measured by online SPE-LC-MS (Solid phase extraction-LC-MS).
Following comprehensive analytical validation steps, the data for each analyte were normalized against data from pool samples. These samples were run in parallel through the whole process to account for process variability. The significance of treatment group values specific for sex, treatment duration and metabolite was determined by comparing means of the treated groups to the means of the respective untreated control groups using WELCH-test and quantified with treatment ratios versus control and p-values.

CNC(=O)/C(=N/OC)c1ccccc1CO/N=C(C)/C(=N/OC)C(/C)=N/OC [Orysastrobin, (2E)-2-(methoxyimino)-2-{2-[(3E,5E,6E)-5-(methoxyimino)-4,6-dimethyl-2,8-dioxa-3,7-diazanona-3,6-dien-1-yl]phenyl}-N-methylacetamide]
Cholic acid, treatment ratio versus control (female rats, day 7): 15.95
Choline plasmalogen (C18,C20:4), treatment ratio versus control (female rats, day 7): 1.18*
Citrate, treatment ratio versus control (female rats, day 7): 1.24*
Creatinine, treatment ratio versus control (female rats, day 7): 0.9
DAG (C18:1,C18:2), treatment ratio versus control (female rats, day 7): 2.21*
Hippuric acid, treatment ratio versus control (female rats, day 7): 0.91
Indole-3-propionic acid, treatment ratio versus control (female rats, day 7): 0.54
Methionine, treatment ratio versus control (female rats, day 7): 1.33*
Proline, treatment ratio versus control (female rats, day 7): 1.03
Serine, treatment ratio versus control (female rats, day 7): 1.32*
TAG (C16:0,C18:1,C18:3), treatment ratio versus control (female rats, day 7): 1.02
TAG (C18:1,C18:2), treatment ratio versus control (female rats, day 7): 1.34*
TAG (C18:2,C18:2), treatment ratio versus control (female rats, day 7): 1.63*
TAG (C18:2,C18:3), treatment ratio versus control (female rats, day 7): 1.37*
TAG (DAG-Fragment), treatment ratio versus control (female rats, day 7): 1.62*
TAG No 02, treatment ratio versus control (female rats, day 7): 1
TAG No 07, treatment ratio versus control (female rats, day 7): 1.19
Threonine, treatment ratio versus control (female rats, day 7): 1.83*
alpha-Tocopherol, treatment ratio versus control (female rats, day 7): 1.27*
Cholic acid, treatment ratio versus control (female rats, day 14): 2.8*
Choline plasmalogen (C18,C20:4), treatment ratio versus control (female rats, day 14): 1.13*
Citrate, treatment ratio versus control (female rats, day 14): 1.04
Creatinine, treatment ratio versus control (female rats, day 14): 1.08
DAG (C18:1,C18:2), treatment ratio versus control (female rats, day 14): 2.83*
Hippuric acid, treatment ratio versus control (female rats, day 14): 1.04
Indole-3-propionic acid, treatment ratio versus control (female rats, day 14): 0.73
Methionine, treatment ratio versus control (female rats, day 14): 1.12*
Proline, treatment ratio versus control (female rats, day 14): 1.08*
Serine, treatment ratio versus control (female rats, day 14): 1.26*
TAG (C16:0,C18:1,C18:3), treatment ratio versus control (female rats, day 14): 2.42*
TAG (C18:1,C18:2), treatment ratio versus control (female rats, day 14): 2.28*
TAG (C18:2,C18:2), treatment ratio versus control (female rats, day 14): 3.02*
TAG (C18:2,C18:3), treatment ratio versus control (female rats, day 14): 1.94*
TAG (DAG-Fragment), treatment ratio versus control (female rats, day 14): 3.03*
TAG No 02, treatment ratio versus control (female rats, day 14): 0.84*
TAG No 07, treatment ratio versus control (female rats, day 14): 1.99*
Threonine, treatment ratio versus control (female rats, day 14): 1.83*
alpha-Tocopherol, treatment ratio versus control (female rats, day 14): 1.24*
Cholic acid, treatment ratio versus control (female rats, day 28): 5.13*
Choline plasmalogen (C18,C20:4), treatment ratio versus control (female rats, day 28): 1.26*
Citrate, treatment ratio versus control (female rats, day 28): 1.08*
Creatinine, treatment ratio versus control (female rats, day 28): 0.84
DAG (C18:1,C18:2), treatment ratio versus control (female rats, day 28): 3.11*
Hippuric acid, treatment ratio versus control (female rats, day 28): 0.41*
Indole-3-propionic acid, treatment ratio versus control (female rats, day 28): 0.64*
Methionine, treatment ratio versus control (female rats, day 28): 1.11*
Proline, treatment ratio versus control (female rats, day 28): 1.1
Serine, treatment ratio versus control (female rats, day 28): 1.16*
TAG (C16:0,C18:1,C18:3), treatment ratio versus control (female rats, day 28): 1.86*
TAG (C18:1,C18:2), treatment ratio versus control (female rats, day 28): 1.98*
TAG (C18:2,C18:2), treatment ratio versus control (female rats, day 28): 1.79*
TAG (C18:2,C18:3), treatment ratio versus control (female rats, day 28): 1.63*
TAG (DAG-Fragment), treatment ratio versus control (female rats, day 28): 2.22*
TAG No 02, treatment ratio versus control (female rats, day 28): 1.02
TAG No 07, treatment ratio versus control (female rats, day 28): 1.5
Threonine, treatment ratio versus control (female rats, day 28): 1.58*
alpha-Tocopherol, treatment ratio versus control (female rats, day 28): 1.33*
Alanine, treatment ratio versus control (male rats, day 7): 1.15*
Campesterol, treatment ratio versus control (male rats, day 7): 1.14
Citrate, treatment ratio versus control (male rats, day 7): 1.12*
Creatinine, treatment ratio versus control (male rats, day 7): 1.04
Glutamate, treatment ratio versus control (male rats, day 7): 1.09
Glutamine, treatment ratio versus control (male rats, day 7): 0.96
Hippuric acid, treatment ratio versus control (male rats, day 7): 0.69
Lysophosphatidylcholine (C20:4), treatment ratio versus control (male rats, day 7): 0.86*
Malate, treatment ratio versus control (male rats, day 7): 1.17*
Methionine, treatment ratio versus control (male rats, day 7): 1.05*
Ornithine, treatment ratio versus control (male rats, day 7): 1.28*
Phosphatidylcholine (C18:0, C22:6), treatment ratio versus control (male rats, day 7): 1.39*
Serine, treatment ratio versus control (male rats, day 7): 1.17*
Threonic acid, treatment ratio versus control (male rats, day 7): 2.29*
Threonine, treatment ratio versus control (male rats, day 7): 1.28*
Alanine, treatment ratio versus control (male rats, day 14): 1.05
Campesterol, treatment ratio versus control (male rats, day 14): 1.07
Citrate, treatment ratio versus control (male rats, day 14): 1.04
Creatinine, treatment ratio versus control (male rats, day 14): 1.03
Glutamate, treatment ratio versus control (male rats, day 14): 0.77*
Glutamine, treatment ratio versus control (male rats, day 14): 0.81*
Hippuric acid, treatment ratio versus control (male rats, day 14): 0.58*
Lysophosphatidylcholine (C20:4), treatment ratio versus control (male rats, day 14): 0.77*
Malate, treatment ratio versus control (male rats, day 14): 1.08
Methionine, treatment ratio versus control (male rats, day 14): 1
Ornithine, treatment ratio versus control (male rats, day 14): 1.31*
Phosphatidylcholine (C18:0, C22:6), treatment ratio versus control (male rats, day 14): 1.34*
Serine, treatment ratio versus control (male rats, day 14): 1.1*
Threonic acid, treatment ratio versus control (male rats, day 14): 1.86*
Threonine, treatment ratio versus control (male rats, day 14): 1.23
Alanine, treatment ratio versus control (male rats, day 28): 1.02
Campesterol, treatment ratio versus control (male rats, day 28): 0.49*
Citrate, treatment ratio versus control (male rats, day 28): 1.09*
Creatinine, treatment ratio versus control (male rats, day 28): 1.16
Glutamate, treatment ratio versus control (male rats, day 28): 0.88
Glutamine, treatment ratio versus control (male rats, day 28): 0.71*
Hippuric acid, treatment ratio versus control (male rats, day 28): 0.48*
Lysophosphatidylcholine (C20:4), treatment ratio versus control (male rats, day 28): 0.81*
Malate, treatment ratio versus control (male rats, day 28): 1.16
Methionine, treatment ratio versus control (male rats, day 28): 1.1*
Ornithine, treatment ratio versus control (male rats, day 28): 1.21*
Phosphatidylcholine (C18:0, C22:6), treatment ratio versus control (male rats, day 28): 1.19*
Serine, treatment ratio versus control (male rats, day 28): 1.26*
Threonic acid, treatment ratio versus control (male rats, day 28): 2.17*
Threonine, treatment ratio versus control (male rats, day 28): 1.14*
capability of inducing an iron adsorption disorder (statement in words): capable of inducing an iron adsorption disorder
